Experimental data: patent US9695155B2, “Herbicidal substituted pyrimidinyloxy benzene compounds” (E. I. DU PONT DE NEMOURS AND COMPANY, priority 2013, dated 2017)

Key:
giant foxtail = assay: Test A preemergence; type: in vivo, Setaria faberii
Method in brief: (§1)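 Scoring: eye-based comparison with untreated controls, 0 for no effect through 100 for complete control, at about day 10. Treatments: directed soil spray preemergence; foliar spray postemergence on 2–10 cm plants at the one- to two-leaf stage. Medium: loam soil with sand.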

morningglory [1] = assay: Test A preemergence; type: in vivo, Ipomoea spp.
Method in brief: as §1

velvetleaf [2] = assay: Test A preemergence; type: in vivo, Abutilon theophrasti
Method in brief: as §1

corn = assay: Test A preemergence; type: in vivo, Zea mays
Method in brief: as §1

large (Lg) crabgrass = assay: Test A postemergence; type: in vivo, Digitaria sanguinalis
Method in brief: as §1

pigweed [3] = assay: Test A postemergence; type: in vivo, Amaranthus retroflexus
Method in brief: as §1

velvetleaf [4] = assay: Test A postemergence; type: in vivo, Abutilon theophrasti
Method in brief: as §1

wheat = assay: Test A postemergence; type: in vivo, Triticum aestivum
Method in brief: as §1

barnyardgrass = assay: Test B flooded paddy test; type: in vivo, Echinochloa crus-galli; details: Flood, 250 g ai/ha, 0 to 100 scale where 0 is no effect and 100 is complete control
Method in brief: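 Post-emergence paddy-water application at the 2-leaf stage, with 3 cm flood kept for the whole test. Response was judged visually relative to controls after 13 to 15 greenhouse days, 0 indicating no effect and 100 complete control.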

Italian ryegrass = assay: Test C postemergence; type: in vivo, Lolium multiflorum
Method in brief: (§2)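 Rated visually on 0–100 (100 = complete control) after 13–15 days under glass. Treatments went onto freshly seeded loam/sand soil or onto emerged plants at the 1- to 4-leaf stage, using a surfactant-containing solvent formulation.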

morningglory [5] = assay: Test C postemergence; type: in vivo, Ipomoea coccinea
Method in brief: as §2

pigweed [6] = assay: Test C postemergence; type: in vivo, Amaranthus retroflexus
Method in brief: as §2

kochia = assay: Test C postemergence; type: in vivo, Kochia scoparia
Method in brief: as §2

[7] = 125 g ai/ha, 0 to 100 scale where 0 is no effect and 100 is complete control
[8] = 500 g ai/ha, 0 to 100 scale, 0 no effect, 100 complete control, approx. 10 days
[9] = 500 g ai/ha, 0 to 100 scale where 0 is no effect and 100 is complete control
[10] = Postemergence, 31 g ai/ha, scale 0 to 100 (0 no effect, 100 complete control), 13 to 15 days
[11] = Postemergence, 62 g ai/ha, scale 0 to 100 (0 no effect, 100 complete control)

N#Cc1cccc(Oc2ncc(Cl)cn2)c1-n1cnc(Br)c1 [Compound 74]
Plant response rating, Foxtail, Giant (giant foxtail; [7]): 90 | Foxtail, Giant plant response rating (giant foxtail; [8]): 100 | Plant response rating, Morningglory (morningglory [1]; [7]): 70 | Morningglory plant response rating (morningglory [1]; [8]): 100 | Plant response rating, Velvetleaf (velvetleaf [2]; [7]): 70 | Velvetleaf plant response rating (velvetleaf [2]; [8]): 100 | Plant response rating, Corn (corn; [7]): 0 | Corn plant response rating (corn; [8]): 40 | Plant response rating, Crabgrass, Large (large (Lg) crabgrass; [7]): 70 | Plant response rating, Crabgrass, Large (large (Lg) crabgrass; 500 g ai/ha, 0 to 100 scale, 0 no effect, 100 complete control): 90 | Plant response rating, Pigweed (pigweed [3]; [7]): 100 | Plant response rating, Pigweed (pigweed [3]; [9]): 100 | Plant response rating, Velvetleaf (velvetleaf [4]; [7]): 90 | Plant response rating, Velvetleaf (velvetleaf [4]; [9]): 100 | Plant response rating, Wheat (wheat; [7]): 0 | Plant response rating, Wheat (wheat; [9]): 50 | Plant response rating, Barnyardgrass (barnyardgrass): 0 | Plant response rating (0 to 100), Ryegrass, Italian (Italian ryegrass; 125 g ai/ha, postemergence): 0 | Plant response rating (0 to 100), Ryegrass, Italian (Italian ryegrass; 250 g ai/ha, postemergence): 5 | Plant response rating, Ryegrass, Italian (Italian ryegrass; [10]): 0 | Plant response rating, Ryegrass, Italian (Italian ryegrass; [11]): 0 | Plant response rating (0 to 100), Morningglory (morningglory [5]; 125 g ai/ha, postemergence): 75 | Plant response rating (0 to 100), Morningglory (morningglory [5]; 250 g ai/ha, postemergence): 85 | Plant response rating, Morningglory (morningglory [5]; [10]): 60 | Plant response rating, Morningglory (morningglory [5]; [11]): 75 | Plant response rating (0 to 100), Pigweed (pigweed [6]; 125 g ai/ha, postemergence): 65 | Plant response rating (0 to 100), Pigweed (pigweed [6]; 250 g ai/ha, postemergence): 80 | Plant response rating, Pigweed (pigweed [6]; [10]): 40 | Plant response rating, Pigweed (pigweed [6]; [11]): 60 | Plant response rating (0 to 100), Kochia (kochia; 125 g ai/ha, postemergence): 90 | Plant response rating (0 to 100), Kochia (kochia; 250 g ai/ha, postemergence): 90 | Plant response rating, Kochia (kochia; [10]): 80 | Plant response rating, Kochia (kochia; [11]): 90

Fc1cnc(Oc2ccccc2-n2cc(Br)cn2)nc1 [Compound 10, 2-[2-(4-bromo-1H-pyrazol-1-yl)phenoxy]-5-fluoropyrimidine]
pest or weed control at 125 g/ha (giant foxtail; Setaria faberi, pre-emergence, 240 h, 125 g ai/ha, 0 to 100 scale where 0 is no effect and 100 is complete control, read-out: Foxtail, Giant plant response rating): 90% | pest or weed control at 500 g/ha (giant foxtail; Setaria faberi, pre-emergence, 240 h, 500 g ai/ha, 0 to 100 scale, 0 no effect, 100 complete control, approx. 10 days, read-out: Foxtail, Giant plant response rating): 100% | pest or weed control at 125 g/ha (morningglory [1]; Ipomoea, pre-emergence, 240 h, 125 g ai/ha, 0 to 100 scale where 0 is no effect and 100 is complete control, read-out: Morningglory plant response rating): 40% | pest or weed control at 500 g/ha (morningglory [1]; Ipomoea, pre-emergence, 240 h, 500 g ai/ha, 0 to 100 scale, 0 no effect, 100 complete control, approx. 10 days, read-out: Morningglory plant response rating): 60% | pest or weed control at 125 g/ha (velvetleaf [2]; Abutilon theophrasti, pre-emergence, 240 h, 125 g ai/ha, 0 to 100 scale where 0 is no effect and 100 is complete control, read-out: Velvetleaf plant response rating): 100% | pest or weed control at 500 g/ha (velvetleaf [2]; Abutilon theophrasti, pre-emergence, 240 h, 500 g ai/ha, 0 to 100 scale, 0 no effect, 100 complete control, approx. 10 days, read-out: Velvetleaf plant response rating): 100% | plant injury at 125 g/ha (corn; Zea mays, pre-emergence, 240 h, 125 g ai/ha, 0 to 100 scale where 0 is no effect and 100 is complete control, read-out: Corn plant response rating): 0% | plant injury at 500 g/ha (corn; Zea mays, pre-emergence, 240 h, 500 g ai/ha, 0 to 100 scale, 0 no effect, 100 complete control, approx. 10 days, read-out: Corn plant response rating): 20% | pest or weed control at 125 g/ha (large (Lg) crabgrass; Digitaria sanguinalis, post-emergence, 240 h, 125 g ai/ha, 0 to 100 scale where 0 is no effect and 100 is complete control, read-out: Plant response rating, Crabgrass, Large): 50% | pest or weed control at 500 g/ha (large (Lg) crabgrass; Digitaria sanguinalis, post-emergence, 240 h, 500 g ai/ha, 0 to 100 scale, 0 no effect, 100 complete control, read-out: Plant response rating Crabgrass, Large): 80% | pest or weed control at 125 g/ha (pigweed [3]; Amaranthus retroflexus, post-emergence, 125 g ai/ha, 0 to 100 scale where 0 is no effect and 100 is complete control, read-out: Plant response rating, Pigweed): 100% | pest or weed control at 500 g/ha (pigweed [3]; Amaranthus retroflexus, post-emergence, 240 h, 500 g ai/ha, 0 to 100 scale, 0 no effect, 100 complete control, read-out: Plant response rating Pigweed): 100% | pest or weed control at 125 g/ha (velvetleaf [4]; Abutilon theophrasti, post-emergence, 240 h, 125 g ai/ha, 0 to 100 scale where 0 is no effect and 100 is complete control, read-out: Plant response rating, Velvetleaf): 100% | pest or weed control at 500 g/ha (velvetleaf [4]; Abutilon theophrasti, post-emergence, 240 h, 500 g ai/ha, 0 to 100 scale, 0 no effect, 100 complete control, read-out: Plant response rating Velvetleaf): 100% | plant injury at 125 g/ha (wheat; Triticum aestivum, post-emergence, 240 h, 125 g ai/ha, 0 to 100 scale where 0 is no effect and 100 is complete control, read-out: Plant response rating, Wheat): 0% | plant injury at 500 g/ha (wheat; Triticum aestivum, post-emergence, 240 h, 500 g ai/ha, 0 to 100 scale, 0 no effect, 100 complete control, read-out: Plant response rating Wheat): 60% | pest or weed control at 250 g/ha (barnyardgrass; Echinochloa crus-galli, read-out: Plant response rating, Barnyardgrass): 0% | pest or weed control at 125 g/ha (Italian ryegrass; Lolium multiflorum, post-emergence, 125 g ai/ha, postemergence, read-out: Plant response rating (0 to 100), Ryegrass, Italian): 5% | pest or weed control at 250 g/ha (Italian ryegrass; Lolium multiflorum, post-emergence, 250 g ai/ha, postemergence, read-out: Plant response rating (0 to 100), Ryegrass, Italian): 10% | pest or weed control at 31 g/ha (Italian ryegrass; Lolium multiflorum, post-emergence, Postemergence, 31 g ai/ha, scale 0 to 100 (0 no effect, 100 complete control), 13 to 15 days, read-out: Plant response rating, Ryegrass, Italian): 0% | pest or weed control at 62 g/ha (Italian ryegrass; Lolium multiflorum, post-emergence, Postemergence, 62 g ai/ha, scale 0 to 100 (0 no effect, 100 complete control), read-out: Plant response rating, Ryegrass, Italian): 0% | pest or weed control at 125 g/ha (morningglory [5]; Ipomoea, post-emergence, 125 g ai/ha, postemergence, read-out: Plant response rating (0 to 100), Morningglory): 65% | pest or weed control at 250 g/ha (morningglory [5]; Ipomoea, post-emergence, 250 g ai/ha, postemergence, read-out: Plant response rating (0 to 100), Morningglory): 85% | pest or weed control at 31 g/ha (morningglory [5]; Ipomoea, post-emergence, Postemergence, 31 g ai/ha, scale 0 to 100 (0 no effect, 100 complete control), 13 to 15 days, read-out: Plant response rating, Morningglory): 40% | pest or weed control at 62 g/ha (morningglory [5]; Ipomoea, post-emergence, Postemergence, 62 g ai/ha, scale 0 to 100 (0 no effect, 100 complete control), read-out: Plant response rating, Morningglory): 65% | pest or weed control at 125 g/ha (pigweed [6]; Amaranthus retroflexus, post-emergence, 125 g ai/ha, postemergence, read-out: Plant response rating (0 to 100), Pigweed): 100% | pest or weed control at 250 g/ha (pigweed [6]; Amaranthus retroflexus, post-emergence, 250 g ai/ha, postemergence, read-out: Plant response rating (0 to 100), Pigweed): 100% | pest or weed control at 31 g/ha (pigweed [6]; Amaranthus retroflexus, post-emergence, Postemergence, 31 g ai/ha, scale 0 to 100 (0 no effect, 100 complete control), 13 to 15 days, read-out: Plant response rating, Pigweed): 75% | pest or weed control at 62 g/ha (pigweed [6]; Amaranthus retroflexus, post-emergence, Postemergence, 62 g ai/ha, scale 0 to 100 (0 no effect, 100 complete control), read-out: Plant response rating, Pigweed): 98% | pest or weed control at 125 g/ha (kochia; Bassia scoparia, post-emergence, 125 g ai/ha, postemergence, read-out: Plant response rating (0 to 100), Kochia): 95% | pest or weed control at 250 g/ha (kochia; Bassia scoparia, post-emergence, 250 g ai/ha, postemergence, read-out: Plant response rating (0 to 100), Kochia): 98% | pest or weed control at 31 g/ha (kochia; Bassia scoparia, post-emergence, Postemergence, 31 g ai/ha, scale 0 to 100 (0 no effect, 100 complete control), 13 to 15 days, read-out: Plant response rating, Kochia): 20% | pest or weed control at 62 g/ha (kochia; Bassia scoparia, post-emergence, Postemergence, 62 g ai/ha, scale 0 to 100 (0 no effect, 100 complete control), read-out: Plant response rating, Kochia): 40%
